Experimental data: patent US20110189308A1, “METHODS TO TREAT NEURODEGENERATIVE CONDITIONS OR DISEASES BY TARGETING COMPONENTS OF A PTEN SIGNALING PATHWAY” (priority 2008, published 2011)

Test system: primary cortical cultures from (Atg7^flox/flox) mice
Experiment: Process length in primary cortical cultures from Atg7 flox/flox mice transfected with Cre plasmid, with PI3K inhibitors
Type: cell-based, mouse
Conditions: FIG. 16D; 10 μM Wortmannin or 50 μM LY294002; n>45 neurons per group; mean±S.E.
Description: FIGS. 16A-16D. Primary midbrain neuronal cultures from autophagy-deficient Dat^Cre/+Atg7^flox/flox mice display prolonged neurites. FIG. 16A, Elongated processes in TH-positive neurons in primary midbrain cultures from autophagy-deficient (Dat^Cre/+Atg7^flox/flox) mice relative to controls (Dat^Cre/+Atg7^flox/wild). FIG. 16B, The elongated process phenotype is also apparent in primary cortical cultures from (Atg7^flox/flox) mice transfected with Cre-recombinase encoding plasmid (along with GFP plasmid) compared to primary neurons transfected with GFP plasmid alone. […] FIG. 16C, Quantitation of process length as in (A). Dat^Cre/+Atg7^flox/wild versus Dat^Cre/+Atg7^flox/flox; 0.933±0.098 mm versus 1.704±0.139 mm, p<0.01. n>49 neurons per group in at least three separate independent experiments. FIG. 16D, quantification of data as in (C). Dat^Cre/+Atg7^flox/wild versus Dat^Cre/+Atg7^flox/flox; 0.428±0.036 mm versus 0.721±0.073 mm (DMSO), 0.198±0.018 mm versus 0.217±0.021 mm (Wortmannin, WM), and 0.158±0.015 mm versus 0.176±0.018 mm (LY294002, LY). n>45 neurons per group in at least three separate independent experiments. Bar, 50 μm.**, P<0.01.
Cell Culture. For midbrain culture, midbrain tissues were dissected from newborn mice (postnatal 0 day). The tissues were minced and digested in isolation medium containing 0.25% trypsin and ascorbic acid at 37° C. for 30 min. After the incubation, the digestion was stopped by 3% fetal bovine serum and 0.25% Dnase I. The tissues were triturated 20 times by glass-pipette and filtrated by cell strainer. They were centrifuged at 1,200 rpm for 5 min, and the supernatants were removed. The cells were suspended in plating medium containing 10% fetal bovine serum and plated on poly-D-lysine and laminin-coated 24-well plates. On the next day, the plating medium was replaced by culture medium containing 1% fetal bovine serum and antimitotic agent. The cells were kept on 37° C. for three more days. For cortical culture, cortical tissues were dissected from newborn mice (postnatal 0 day). The tissues were minced and digested in isolation medium containing 0.25% trypsin at 37° C. for 30 min. After the incubation, the digestion was stopped by 3% fetal bovine serum and 0.25% Dnase I. The tissues were triturated 20 times by glass-pipet and filtrated by cell strainer. They were centrifuged at 1,200 rpm for 5 min, and the supernatants were removed. The cells were suspended in plating medium containing 10% fetal bovine serum and plated on poly-D-lysine and laminin-coated 24-well plates. On second day, the cells were transfected with GFP or Cre expression plasmids. To transfect the plasmids, the cells were washed in 500 μl DMEM and added 30 μl of DNA/Ca/Phosphate complex (2 μg DNA/3.75 μl 1M CaCl2/15 μl 2× HBSS). […]

Compound	process length, Atg7-deficient neurons (Dat^Cre/+Atg7^flox/flox) [mm]	process length, control neurons (Dat^Cre/+Atg7^flox/wild) [mm]
COC[C@H]1OC(=O)c2coc3c2[C@@]1(C)C1=C(C3=O)[C@@H]2CCC(=O)[C@@]2(C)C[C@H]1OC(C)=O [Wortmannin]	0.217±0.021	0.198±0.018
O=c1cc(N2CCOCC2)oc2c(-c3ccccc3)cccc12 [LY294002]	0.176±0.018	0.158±0.015
